# Assay results reported in US11471468B2, “Methods and systems for conditioning of particulate crystalline materials” (Pearl Therapeutics, Inc., priority 2013, dated 2022).
# Assays:
# Type in all cases: physicochemical
# [1] = Residual solvent content by GC analysis
# Procedure: Residual solvent content of the material from different batches was also analyzed. […] Residual solvent is partially removed using primary (ethanol) and secondary (water) conditioning.
# Compound A (IUPAC: 7-[(1R)-2-[2-[2-fluoro-5-[[4-(2-isopropylthiazole-4-carbonyl)-1-oxa-4,9-diazaspiro[5.5]undecan-9-yl]methyl]phenyl]ethylamino]-1-hydroxy-ethyl]-4-hydroxy-3H-1,3-benzothiazol-2-one; di[[(1S,4R)-7,7-dimethyl-2-oxo-norbornan-1-yl]methanesulfonic acid] salt) was received with a 3.8% ethanol residual content. This material had been previously micronized and conditioned according to the present description to reduce the presence of isopropyl (IPA) and ethanol (EtOH) by solvent exchange/removal. The material was exposed to another conditioning gas that included water vapor, and was mixed with the conditioning gas in a conditioning zone for approximately 1.5 hours.
# [2] = Particle size distribution by laser diffraction (Sympatec) after processing; conditions: for D10 / D50 / D90: Compound A, PSD; for X10: micronized GP, sampled immediately after processing
# [3] = Amorphous content by (dynamic) vapor sorption; conditions: for % Amorphous Content Initial: micronized GP batches; for Calculated Amorphous Content, Collector 1 / Calculated Amorphous Content, Collector 2: conditioned GP, dynamic vapor sorption, n=2 replicates per collector
# From the text: (§1) A portion of the micronized GP was also conditioned using an in-process conditioning system wherein nitrogen conditioning gas was supplied to the in-process conditioning system and was controlled for flow rate, temperature and humidity. The conditioning gas was humidified through a droplet evaporation chamber after which it was directed to a mixing zone. In the mixing zone, the conditioning gas was mixed with the jet-milled aerosol comprising the micronized GP. The aerosol then entered a conditioning zone where annealing of the micronized GP occurred. The particle residence time through the conditioning zone was adjusted by means of the conditioning zone chamber geometry and/or the gas flow rate through the conditioning zone chamber. After passing through the conditioning zone, the micronized GP particles reached the cyclone-collection zone where the solid particles were separated from the gas phase and transported to a collection vessel. Upon completion of the batch processing, the collector was disengaged and transferred to a glove box for sampling. The sampling occurred in a <5% relative humidity environment. Samples were then analyzed for particle size distribution and amorphous content.
# The amorphous content by vapor sorption and particle morphology for both batches were also assessed. FIG. 9 provides the ethanol vapor sorption isotherm at 25° C. for both batches of micronized budesonide.
# The amorphous content by vapor sorption and particle morphology for both batches were also assessed. FIG. 11 provides the ethanol vapor sorption isotherm at 25° C. for both batches of micronized fluticasone.
# All batches were also analyzed for amorphous content by dynamic vapor sorption using n=2 replicates per collector.
# The amorphous content by vapor sorption and particle morphology for both batches of micronized sucrose were also assessed. FIG. 13 provides the water vapor sorption isotherm at 25° C. for both batches of micronized sucrose.
# [4] = Particle size distribution by laser diffraction (Sympatec) after processing; conditions: for X50 / X90: micronized GP, sampled immediately after processing; for D10 / D50 / D90: micronized/annealed GP, scale-up ~1 kg batches, mean of n=3 replicates per collector; for Physical stability after micronization judged from size distribution: laser diffraction, Tables 4 and 5
# From the text: When referred to herein, the term “optical diameter” indicates the size of a particle as measured using a laser diffraction particle size analyzer equipped with a dry powder dispenser (e.g., Sympatec GmbH, Clausthal-Zellerfeld, Germany).
# as §1
# Both micronized sucrose batches were analyzed for particle size distribution by Sympatec laser diffraction.
# [5] = Compound A batches of Example 6, residual solvent, listed as Compound A, 30° C./55% RS, 30° C./70% RH
# [6] = listed as Batch B - Collector 1
# [7] = listed as Batch B - Collector 2
# [8] = Compound A batches of Example 6, residual solvent, listed as Compound A, Raw (un-milled)
# [9] = listed as Batch C - Collector 1
# [10] = listed as Batch C - Collector 2
# [11] = listed as Batch A - Collector 1
# [12] = listed as Batch A - Collector 2
# [13] = micronized Compound A of Example 7, before/after about […] with water-vapor conditioning gas
# [14] = Compound A batches of Example 6
# [15] = Compound A batches of Example 6, residual solvent
molecule,measurement,setting,value
"7-[(1R)-2-[2-[2-fluoro-5-[[4-(2-isopropylthiazole-4-carbonyl)-1-oxa-4,9-diazaspiro[5.5]undecan-9-yl]methyl]phenyl]ethylamino]-1-hydroxy-ethyl]-4-hydroxy-3H-1,3-benzothiazol-2-one; di[[(1S,4R)-7,7-dimethyl-2-oxo-norbornan-1-yl]methanesulfonic acid] salt [Compound A, 30° C./55% RS (ethanol); 30° C./70% RH (water)]",% EtOH (w/w),[1]; [5],1.2% (w/w)
same,% IPA (w/w),[1]; [5],2.1% (w/w)
same,% Water,"[1]; Compound A batches of Example 6, listed as Compound A, 30° C./55% RS, 30° C./70% RH",3.4%
same,D10,[2],0.6 μm
same,D50,[2],1.7 μm
same,D90,[2],3.2 μm
"C[N+]1(C)CCC(OC(=O)C(O)(c2ccccc2)C2CCCC2)C1 (centres unmarked) [Batch 1A, Glycopyrrolate]",% Amorphous Content Initial,[3],17.9%
"C[N+]1(C)CCC(OC(=O)C(O)(c2ccccc2)C2CCCC2)C1 (centres unmarked) [Micronized GP, Standard Jet Milling, Glycopyrrolate]",X50,[4],1.4 μm
same,X90,[4],3.0 μm
same,X10,[2],0.5 μm
"C[N+]1(C)CCC(OC(=O)C(O)(c2ccccc2)C2CCCC2)C1 (single isomer, unassigned) [Batch B, Glycopyrrolate]",D10,[4]; [6],0.52 μm
same,D50,[4]; [6],1.47 μm
same,D90,[4]; [6],3.02 μm
same,D10,[4]; [7],0.52 μm
same,D50,[4]; [7],1.46 μm
same,D90,[4]; [7],2.99 μm
same,"Calculated Amorphous Content, Collector 1",[3],2.65%
same,"Calculated Amorphous Content, Collector 2",[3],2.40%
"C[N+]1(C)CCC(OC(=O)C(O)(c2ccccc2)C2CCCC2)C1 (centres unmarked) [Batch 2C, Glycopyrrolate]",% Amorphous Content Initial,[3],0.9%
"C[N+]1(C)CCC(OC(=O)C(O)(c2ccccc2)C2CCCC2)C1 (centres unmarked) [Batch 2E, Glycopyrrolate]",% Amorphous Content Initial,[3],2.6%
"7-[(1R)-2-[2-[2-fluoro-5-[[4-(2-isopropylthiazole-4-carbonyl)-1-oxa-4,9-diazaspiro[5.5]undecan-9-yl]methyl]phenyl]ethylamino]-1-hydroxy-ethyl]-4-hydroxy-3H-1,3-benzothiazol-2-one; di[[(1S,4R)-7,7-dimethyl-2-oxo-norbornan-1-yl]methanesulfonic acid] salt [Compound A, Raw (Un-milled)]",% EtOH (w/w),[1]; [8],0.0% (w/w)
same,% IPA (w/w),[1]; [8],4.7% (w/w)
same,% Water,"[1]; Compound A batches of Example 6, listed as Compound A, Raw (un-milled)",3.1%
same,D10,[2],1.1 μm
same,D50,[2],3.7 μm
same,D90,[2],16.3 μm
"C[N+]1(C)CCC(OC(=O)C(O)(c2ccccc2)C2CCCC2)C1 (centres unmarked) [Batch 2G, Glycopyrrolate]",% Amorphous Content Initial,[3],2.3%
"C[N+]1(C)CCC(OC(=O)C(O)(c2ccccc2)C2CCCC2)C1 (centres unmarked) [Micronized GP, In-Process Conditioning, Glycopyrrolate]",X50,[4],1.5 μm
same,X90,[4],3.1 μm
same,X10,[2],0.6 μm
"C[N+]1(C)CCC(OC(=O)C(O)(c2ccccc2)C2CCCC2)C1 (single isomer, unassigned) [Batch C, Glycopyrrolate]",D10,[4]; [9],0.52 μm
same,D50,[4]; [9],1.47 μm
same,D90,[4]; [9],3.03 μm
same,D10,[4]; [10],0.51 μm
same,D50,[4]; [10],1.45 μm
same,D90,[4]; [10],2.96 μm
same,"Calculated Amorphous Content, Collector 1",[3],2.65%
same,"Calculated Amorphous Content, Collector 2",[3],2.45%
"7-[(1R)-2-[2-[2-fluoro-5-[[4-(2-isopropylthiazole-4-carbonyl)-1-oxa-4,9-diazaspiro[5.5]undecan-9-yl]methyl]phenyl]ethylamino]-1-hydroxy-ethyl]-4-hydroxy-3H-1,3-benzothiazol-2-one; di[[(1S,4R)-7,7-dimethyl-2-oxo-norbornan-1-yl]methanesulfonic acid] salt [Compound A]",Ethanol residual content as received,"[1]; Compound A as received, Example 7",3.8%
same,Residual isopropyl alcohol solvent after manufacture,"[1]; Compound A before micronization, Example 6",~5%
"C[N+]1(C)CCC(OC(=O)C(O)(c2ccccc2)C2CCCC2)C1 (single isomer, unassigned) [Batch A, Glycopyrrolate]",D10,[4]; [11],0.52 μm
same,D50,[4]; [11],1.48 μm
same,D90,[4]; [11],3.02 μm
same,D10,[4]; [12],0.52 μm
same,D50,[4]; [12],1.47 μm
same,D90,[4]; [12],2.99 μm
same,"Calculated Amorphous Content, Collector 1",[3],2.65%
same,"Calculated Amorphous Content, Collector 2",[3],2.35%
"C[N+]1(C)CCC(OC(=O)C(O)(c2ccccc2)C2CCCC2)C1 (centres unmarked) [Batch 2D, Glycopyrrolate]",% Amorphous Content Initial,[3],0.9%
"7-[(1R)-2-[2-[2-fluoro-5-[[4-(2-isopropylthiazole-4-carbonyl)-1-oxa-4,9-diazaspiro[5.5]undecan-9-yl]methyl]phenyl]ethylamino]-1-hydroxy-ethyl]-4-hydroxy-3H-1,3-benzothiazol-2-one; di[[(1S,4R)-7,7-dimethyl-2-oxo-norbornan-1-yl]methanesulfonic acid] salt [Micronized Compound A, As Received]",% EtOH (w/w),[1]; [13],3.8% (w/w)
same,% IPA (w/w),[1]; [13],0.1% (w/w)
same,% Water,[1]; [13],3.1%
"7-[(1R)-2-[2-[2-fluoro-5-[[4-(2-isopropylthiazole-4-carbonyl)-1-oxa-4,9-diazaspiro[5.5]undecan-9-yl]methyl]phenyl]ethylamino]-1-hydroxy-ethyl]-4-hydroxy-3H-1,3-benzothiazol-2-one; di[[(1S,4R)-7,7-dimethyl-2-oxo-norbornan-1-yl]methanesulfonic acid] salt [Compound A, Unannealed]",% Water,[1]; [14],3.0%
same,% EtOH (w/w),[1]; [15],0.2% (w/w)
same,% IPA (w/w),[1]; [15],3.9% (w/w)
same,D10,[2],0.6 μm
same,D50,[2],1.6 μm
same,D90,[2],3.1 μm
"CCCC1O[C@@H]2C[C@H]3[C@@H]4CCC5=CC(=O)C=C[C@]5(C)[C@H]4[C@@H](O)C[C@]3(C)[C@]2(C(=O)CO)O1 (some centres unmarked) [Micronized Budesonide, Batch 2 (annealed)]",Physical stability after micronization judged from size distribution,[4],good physical stability
"C[N+]1(C)CCC(OC(=O)C(O)(c2ccccc2)C2CCCC2)C1 (centres unmarked) [Batch 2F, Glycopyrrolate]",% Amorphous Content Initial,[3],0.9%
"7-[(1R)-2-[2-[2-fluoro-5-[[4-(2-isopropylthiazole-4-carbonyl)-1-oxa-4,9-diazaspiro[5.5]undecan-9-yl]methyl]phenyl]ethylamino]-1-hydroxy-ethyl]-4-hydroxy-3H-1,3-benzothiazol-2-one; di[[(1S,4R)-7,7-dimethyl-2-oxo-norbornan-1-yl]methanesulfonic acid] salt [Micronized Compound A, 30° C./70% RH (water)]",% EtOH (w/w),[1]; [13],0.1% (w/w)
same,% IPA (w/w),[1]; [13],0.0% (w/w)
same,% Water,[1]; [13],3.6%
"CCCC1O[C@@H]2C[C@H]3[C@@H]4CCC5=CC(=O)C=C[C@]5(C)[C@H]4[C@@H](O)C[C@]3(C)[C@]2(C(=O)CO)O1 (some centres unmarked) [Micronized Budesonide, Batch 1 (unannealed)]",Physical stability after micronization judged from size distribution,[4],potential agglomeration
"C[N+]1(C)CCC(OC(=O)C(O)(c2ccccc2)C2CCCC2)C1 (centres unmarked) [Batch 2B, Glycopyrrolate]",% Amorphous Content Initial,[3],5.3%
"7-[(1R)-2-[2-[2-fluoro-5-[[4-(2-isopropylthiazole-4-carbonyl)-1-oxa-4,9-diazaspiro[5.5]undecan-9-yl]methyl]phenyl]ethylamino]-1-hydroxy-ethyl]-4-hydroxy-3H-1,3-benzothiazol-2-one; di[[(1S,4R)-7,7-dimethyl-2-oxo-norbornan-1-yl]methanesulfonic acid] salt [Compound A, 30° C./70% RH]",% Water,[1]; [14],3.4%
same,% EtOH (w/w),[1]; [15],0.1% (w/w)
same,% IPA (w/w),[1]; [15],3.6% (w/w)
same,D10,[2],0.6 μm
same,D50,[2],1.6 μm
same,D90,[2],3.1 μm
